One experiment has as its target Sigma 2 receptor. The experiment can be described thus: Binding affinity of compound was measured towards Sigma receptor type 2 by using [3H]ditolylguanidine as radioligand. The arrangement: species or system Cavia porcellus.
Experiment [1] concerns the target T1, Sigma non-opioid intracellular receptor 1 (Homo sapiens, UniProt Q99720). In words: Binding affinity for Sigma receptor type 1,using [3H](+)-pentazocine as radioligand.
For experiment [2], the target named is T1, Sigma non-opioid intracellular receptor 1. In words: Selectivity for sigma 2 compared to sigma 1 receptor.
Experiment [3] in a line: Binding affinity for Sigma receptor type 1,using [3H](+)-pentazocine as radioligand.

The record followed here is ChEMBL document CHEMBL1147560, “Thioxanthene-derived analogs as sigma(1) receptor ligands” (Bioorg Med Chem Lett, 2004).

Bounds are passed on as bounds.

T1 sequence (Q99720 whole entry): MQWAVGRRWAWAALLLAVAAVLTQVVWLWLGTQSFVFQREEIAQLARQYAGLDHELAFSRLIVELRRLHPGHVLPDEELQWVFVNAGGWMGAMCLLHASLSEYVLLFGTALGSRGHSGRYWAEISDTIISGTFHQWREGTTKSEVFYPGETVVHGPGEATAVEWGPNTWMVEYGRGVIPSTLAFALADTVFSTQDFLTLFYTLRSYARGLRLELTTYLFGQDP

Regarding `CCN(CC)CCCCC(O)(c1ccccc1)c1ccccc1`, the results for the Ki (at Sigma 2 receptor; in experiment [1]) were 800 nM and 12 nM, respectively. In addition, in experiment [2], the Selectivity is 67.
Regarding `CC1CCN(CCC=C(c2ccccc2)c2ccccc2)CC1`, the Ki (commonly a measure of affinity in units of concentration, obtained from inhibition or displacement) amounted to 28 nM on Sigma 2 receptor and 1.9 nM in experiment [1]. In experiment [2], this compound had a Selectivity of 15.
Turning to `c1ccc(CCNCCCCC(c2ccccc2)c2ccccc2)cc1`, the inhibition constant Ki on Sigma 2 receptor was determined as 100 nM; in experiment [1] it was 0.66 nM. This compound gave a Selectivity in experiment [2] (Cavia porcellus) of 152.
`CCN(CC)CCOC(=O)C(O)(c1ccccc1)c1ccccc1` [BENACTYZINE] had a Ki in experiment [1] of over 1000 nM.
On to `CN1CCN(CCCCc2ccccc2)CC1`, for which the Ki at Sigma 2 receptor turned out to be 900 nM; in experiment [1], 20 nM. For the same compound, in experiment [2], the Selectivity is 45.
`CN1CCN(CC/C=C/c2ccccc2)CC1`: the Ki was determined as 1300 nM at Sigma 2 receptor and 29 nM in experiment [1]. Also, the Selectivity in experiment [2] was 45.
In the same order, the values of `CC1CCN(CCC=C2c3ccccc3Sc3ccccc32)CC1` are 26 nM, 0.8 nM and 33.
The matching figures for `CCN(CC)CCCCC(c1ccccc1)c1ccccc1`: 51 nM, 1.4 nM and 36.
In turn, `CN(CCCCCc1ccccc1)CCc1ccccc1` returned a Ki in experiment [3] of 0.25 nM.
In the case of `CN(CCCC=C(c1ccccc1)c1ccccc1)CCc1ccccc1`, the inhibition constant Ki is 41 nM on Sigma 2 receptor and 0.89 nM in experiment [1]. In experiment [2], the Selectivity turned out to be 46.
The compound `CC1CCN(CCCC=C(c2ccccc2)c2ccccc2)CC1` yielded a Ki on Sigma 2 receptor of 25 nM.
For the compound `CN1CCN(CC/C=C\c2ccccc2)CC1`, the Ki was 2540 nM on Sigma 2 receptor and 29 nM in experiment [1]. The compound further gave a Selectivity in experiment [2] of 88.
For `C(CCCNCCc1ccccc1)=C(c1ccccc1)c1ccccc1`, at Sigma 2 receptor, the Ki was 142 nM. This lies in the sub-micromolar range.
For the compound `CN(CCCCC(c1ccccc1)c1ccccc1)CCc1ccccc1`, the results for the Ki (at Sigma 2 receptor; in experiment [1]) were 32 nM and 0.48 nM, respectively. Besides, the Selectivity in experiment [2] is 67.
Regarding `CC1CCN(CCCCCc2ccccc2)CC1`, the Ki in experiment [1] came out at 0.07 nM.
`CC1CCN(CCCC(c2ccccc2)c2ccccc2)CC1`: the Ki on Sigma 2 receptor came out at 28 nM; in experiment [1], 1.1 nM. In addition, the Selectivity in experiment [2] was 25.
As for `CCCC(C(=O)OCCN(CC)CC)(c1ccccc1)c1ccccc1` [PROADIFEN], the affinity at Sigma 2 receptor corresponds to a Ki of 1100 nM.
As to `CC1CCN(CCCCC(c2ccccc2)c2ccccc2)CC1`, the Ki on Sigma 2 receptor stood at 17 nM; in experiment [1], 0.09 nM. For the same compound, in experiment [2], the Selectivity came out at 189.
